Test results taken from US20180344725A1, “QUINOLONE CHALCONE COMPOUNDS AND USES THEREOF” (priority 2015, published 2018).

Tests used:
Format in all cases: cell-based
HeLa cells = assay: Cell cycle analysis by flow cytometry; settings: 6-72 hours
Procedure: Approximately 1×10^6 cells per plate were seeded and grown overnight. Cells were then treated the next morning with test compounds, and harvested at the scheduled post-treatment times. The cell pellet was collected by centrifugation at 1,100 rpm (Allegra™ X-12 centrifuge, Beckman Coulter, Indianapolis, Ind.), followed by washing the cells twice with PBS, and fixing them with 75% ethanol for 12-24 hours at −20° C. Ethanol was removed by centrifugation at […] (Allegra™ X-12 centrifuge, Beckman Coulter); cells were suspended in PBS and centrifuged again at […] in the same rotor. The PBS was then removed and the cell pellet was resuspended and stained for 1 hour with propidium iodide (PI) staining solution (0.3% nonidet P-40, 100 μg/ml RNase A and 100 μg/ml PI in PBS). The DNA content in the different phases of the cell cycle was analysed by flow cytometry using Beckmann Coulter Cytomics FC500 (Mississauga, ON, Canada). The reversibility of drug effects was determined as follow: HeLa cells treated with a CTR compound for 12 hours were washed twice with 1×PBS, and then released them into pre-warmed drug-free complete medium for scheduled durations. The cells were then examined by confocal microscopy for their morphology or subjected to cell cycle analysis by flow cytometry after cells (DNA) were stained with propidium iodide.

[1] = SRB cell viability, isogenic breast cell lines; settings: human, MCF10AT1 cells (pre-malignant breast cells), 31.25 nM
Procedure: (§1) FIG. 9 illustrates that CTR-17, CTR-20, CTR-21 and CTR-32 preferentially kill the fully malignant […] breast cancer cells over the pre-malignant MCF10AT1 and the non-malignant MCF-10A breast cells. Cells were treated with (A) CTR-17 at doses of 0.10, 0.39, 1.56 or 6.25 μM; (B) CTR-20 at doses of 0.10, 0.39, 1.56 or 6.25 μM; (C) CTR-21 at doses of 7.81, 15.63, 31.25, 62.5, 125 or 250 nM; or (D) CTR-32 at doses of 7.81, 15.63, 31.25, 62.5, 125 or 250 nM for 72 hours. Cell viability was determined using an SRB assay.
(§2) All of the cell lines used were purchased from ATCC and cultured in RPMI-1640 supplemented with 10% fetal bovine serum and antibiotics (100 units penicillin/100 μg/ml streptomycin), unless stated otherwise. 1845B5 and MCF-10A non-cancer breast cell lines were cultured in DME/F12 medium supplemented with 10% fetal bovine serum, antibiotics and growth factors. KB-3-1 is a human epidermal carcinoma cell line and KB-C-2 is its isogenic multidrug-resistant cell line with over-expressing ABCB1/P-gp. […] The human small cell lung carcinoma H69 cell line and its multidrug-resistant MRP1-overexpressing isogenic H69AR cell line were purchased from ATCC. The H69AR cell line was established in the presence of increasing concentrations of Adriamycin (doxorubicin). H69 cells grow as large multi-cell aggregates, making it difficult to accurately count cell numbers. Therefore, the cytotoxicity results obtained from H69AR cells were compared to SW1271, a small cell lung carcinoma cell line without a multidrug-resistant phenotype. The IL-6 dependent bortezomib-resistant ANBL6-BR cell line was further supplemented with 1 ng/ml of IL-6. The MCF10AT1 and MCF10CA1a cell lines are isogenic to the MCF10A cell line, and obtained from Dr. Valerie Weaver at the Center for Bioengineering and Tissue Regeneration, UCSF, CA, USA. MCF10AT1 is a premalignant cell line generated by transforming MCF10A with c-Ha-Ras; and MCF10CA1a was isolated by selecting malignant cells after MCF10AT1 cells were engrafted into mice (Liu & Lin 2004; Marella et al. 2009). The MCF10AT1 and MCF10CA1a cells were cultured in DMEM supplemented with 10% FBS (volume/volume). MDA-MB231TaxR cell line was generated in house by culturing MDA-MB231 cells in gradually increasing doses of paclitaxel over one-year period, and finally maintained at 100 nM paclitaxel. The drug-resistant cells were cultured in the absence of drug for at least one passage before carrying out experiments. All cells were maintained in a humidified incubator at 37° C. (5% CO2/95% air). Cell line authentication was performed using short tandem repeat (STR) profiling.
(§3) For (anti)proliferation assays, 4,000-5,000 cells/well of the 96-well clustered dish were incubated for 16 hours, as described previously (Hu et al., 2008; Skehan et al., 1990). After 16 hours, culture medium was replaced with fresh medium containing different dilutions of test compounds dissolved in DMSO. Some wells were treated with 100 μl of 10% trichloroacetic acid (TCA) as a negative control and sham (medium with dimethyl sulfoxide; DMSO) treated cells were used as a positive control. After 72 hours post-incubation, medium was removed and cells were fixed with 10% TCA at 4° C. for 1 hour. TCA was removed and cells were washed with cold tap water, and plate was air-dried, followed by addition of 50 μl of 0.4% SRB staining solution to each well. After 30 minutes incubation, SRB staining solution was removed. Cells were washed with 1% acetic acid solution, and then washed with tap water to remove unbound staining solution, followed by air-drying. 200 μl of 10 mM (pH10.5) trizma base buffer was added to each well to solubilise macromolecules. SRB stained macromolecules were determined at a 540 nm wavelength using an automated plate reader (Synergy H4 Hybrid Multi-Mode Microplate Reader, BioTek, Winooski, Vt.). Cell growth (inhibition) was calculated by the following formula: […]

MCF10AT1 = assay: SRB cell viability, isogenic breast cell lines; settings: 0.39 μM, 72 hours
Procedure: as §1, §2, §3

Compound	concentrations that caused mitotic arrest and, eventually, cell death (HeLa cells)	viability at 72 h, 0.03125 µM [1]	Cell survival rate (MCF10AT1)
COc1ccccc1C(=O)/C=C/c1cc2cccc(OC)c2[nH]c1=O [CTR-21, (E)-8-methoxy-3-(3-(2-methoxyphenyl)-3-oxoprop-1-enyl) quinolin-2(1H)-one]	> 60 nM	24%	–
CCOc1ccccc1C(=O)/C=C/c1cc2ccccc2[nH]c1=O [CTR-32, (E)-3-(3-(2-ethoxyphenyl)-3-oxoprop-1-enyl)quinolin-2(1H)-one]	> 50 nM	70%	–
COc1ccccc1C(=O)/C=C/c1cc2ccccc2[nH]c1=O [CTR-17, (E)-3-(3-(2-Methoxyphenyl)-3-oxoprop-1-enyl)quinolin-2(1H)-one]	–	–	60%
COc1ccc2[nH]c(=O)c(/C=C/C(=O)c3ccccc3OC)cc2c1 [CTR-20, (E)-6-Methoxy-3-(3-(2-methoxyphenyl)-3-oxoprop-1-enyl) quinolin-2(1H)-one]	–	–	20%
